Values joined by “and” are separate entries in the source; they are usually repeats but may differ in a detail not shown here. Equal entries are not always repeated. Where two headings read alike, the source gives them in different places. Blank lines part the entries; values can stand above or below the compound they belong to.
Columns and labels:
[1] = target: T1, human recombinant adrenergic α2B receptor (Homo sapiens, UniProt P18089); experiment: Radioligand binding, adrenergic α2B ([3H]Rauwolscine); details: for Ki: read-out: Ki α2B
T1 construct: expressed in transfected cells; host or cells: CHO-K1
T1 sequence (P18089 1-450): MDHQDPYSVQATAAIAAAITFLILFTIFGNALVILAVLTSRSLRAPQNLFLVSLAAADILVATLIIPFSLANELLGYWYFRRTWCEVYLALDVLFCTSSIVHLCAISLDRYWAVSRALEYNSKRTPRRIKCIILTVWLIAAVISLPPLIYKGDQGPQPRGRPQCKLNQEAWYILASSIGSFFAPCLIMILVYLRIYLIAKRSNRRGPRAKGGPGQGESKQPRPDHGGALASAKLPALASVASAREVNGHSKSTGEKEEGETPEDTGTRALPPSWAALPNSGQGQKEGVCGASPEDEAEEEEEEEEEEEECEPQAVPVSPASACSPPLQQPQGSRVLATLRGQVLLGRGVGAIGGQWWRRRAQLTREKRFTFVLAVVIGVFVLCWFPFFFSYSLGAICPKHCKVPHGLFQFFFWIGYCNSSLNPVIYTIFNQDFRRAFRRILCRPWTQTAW
How it was run: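 Readout: percent inhibition of specific [3H]Rauwolscine binding, measured by filtration and counting. Conditions: CHO-K1 cell-expressed receptor, 2.5 nM radioligand, 60 min, 25° C, Tris-HCl pH 7.4 buffer with MgCl2, EDTA, BSA. Non-specific binding: 10 μM Prazosin.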

[2] = target: T2, human recombinant adrenergic α2A receptor (Homo sapiens, UniProt P08913); experiment: Radioligand binding, adrenergic α2A ([3H]MK-912); details: for Percentage inhibition of ligand binding, Adrenergic α2A (0.1 μM) / Percentage inhibition of ligand binding, Adrenergic α2A: 0.1 µM
T2 construct: expressed in transfected cells; host or cells: insect Sf9 cells
T2 sequence (P08913 1-465): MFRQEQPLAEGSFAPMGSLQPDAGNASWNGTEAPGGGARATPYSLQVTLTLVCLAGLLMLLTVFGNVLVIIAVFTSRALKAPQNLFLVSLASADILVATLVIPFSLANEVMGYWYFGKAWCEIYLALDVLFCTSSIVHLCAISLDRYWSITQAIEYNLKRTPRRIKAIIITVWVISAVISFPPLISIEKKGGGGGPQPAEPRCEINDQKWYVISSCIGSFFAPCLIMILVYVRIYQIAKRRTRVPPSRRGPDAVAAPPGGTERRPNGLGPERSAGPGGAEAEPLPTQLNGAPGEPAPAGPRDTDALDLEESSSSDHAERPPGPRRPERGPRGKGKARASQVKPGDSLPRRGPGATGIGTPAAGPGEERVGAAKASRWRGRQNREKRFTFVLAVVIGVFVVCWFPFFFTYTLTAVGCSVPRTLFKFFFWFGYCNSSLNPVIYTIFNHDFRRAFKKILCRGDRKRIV
How it was run: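 Receptor expressed in Sf9 cells, in 50 mM Tris-HCl pH 7.4, 12.5 mM MgCl2, 2 mM EDTA; compounds incubated with 1 nM [3H]MK-912 for 60 min at 25 °C.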

[3] = target: T3, rat adrenergic α1B receptor (Rattus norvegicus, UniProt P15823); experiment: Radioligand binding, adrenergic α1B ([3H]Prazosin); details: for Percentage inhibition of ligand binding, Adrenergic α1B (0.1 μM) / Percentage inhibition of ligand binding, Adrenergic α1B: 0.1 µM
T3 construct: rat adrenergic α1B receptor obtained from Wistar Rat liver; from tissue; host or cells: Wistar rat liver
T3 sequence (P15823 1-515): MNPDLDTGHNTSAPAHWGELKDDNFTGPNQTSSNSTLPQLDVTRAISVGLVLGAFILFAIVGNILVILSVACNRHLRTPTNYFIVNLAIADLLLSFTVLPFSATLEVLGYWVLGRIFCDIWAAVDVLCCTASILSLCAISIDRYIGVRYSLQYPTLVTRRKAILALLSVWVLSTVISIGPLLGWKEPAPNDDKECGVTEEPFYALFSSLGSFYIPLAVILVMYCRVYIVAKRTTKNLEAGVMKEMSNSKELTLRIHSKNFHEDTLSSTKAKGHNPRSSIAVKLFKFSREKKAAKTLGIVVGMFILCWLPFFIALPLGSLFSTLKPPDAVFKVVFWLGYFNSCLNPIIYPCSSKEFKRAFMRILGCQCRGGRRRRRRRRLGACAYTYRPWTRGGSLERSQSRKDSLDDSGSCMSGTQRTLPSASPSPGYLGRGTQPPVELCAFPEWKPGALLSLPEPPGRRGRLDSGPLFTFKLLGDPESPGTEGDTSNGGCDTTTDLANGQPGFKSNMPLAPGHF
How it was run: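 Specific binding, taken as total minus that remaining with 10 μM phentolamine, is measured after filtration and counting. Rat liver receptor preparation and 0.25 nM [3H]prazosin are incubated with compound in 50 mM Tris-HCl (pH 7.4, 0.5 mM EDTA) at 25° C for 60 min. Activity is reported as percent inhibition.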

[4] = compound at 0.03 μM, [3H]Rauwolscine, repeat datapoints each shown, 0.03 µM
[5] = read-out: Percentage inhibition of ligand binding, Adrenergic α2B (0.03 μM), compound at 0.03 μM, [3H]Rauwolscine, repeat datapoints each shown
[6] = compound at 0.1 μM, [3H]MK-912, repeat datapoints each shown
[7] = read-out: Percentage inhibition of ligand binding, Adrenergic α2A (0.1 μM), compound at 0.1 μM, [3H]MK-912, repeat datapoints each shown
[8] = compound at 0.1 μM, [3H]Prazosin, repeat datapoints each shown
[9] = read-out: Percentage inhibition of ligand binding, Adrenergic α1B (0.1 μM), compound at 0.1 μM, [3H]Prazosin, repeat datapoints each shown
[10] = compound at 0.03 μM, [3H]Rauwolscine, repeat assays, each datapoint shown, 0.03 µM
[11] = compound at 0.1 μM, [3H]MK-912, repeat assays, each datapoint shown
[12] = compound at 0.1 μM, [3H]Prazosin, repeat assays, each datapoint shown, read-out: Percentage inhibition of ligand binding, Adrenergic α1B
[13] = compound at 0.03 μM, [3H]Rauwolscine, repeat assays, each datapoint shown, read-out: Percentage inhibition of ligand binding, Adrenergic α2B
[14] = compound at 0.1 μM, [3H]MK-912, repeat assays, each datapoint shown, read-out: Percentage inhibition of ligand binding, Adrenergic α2A
[15] = 0.03 μM compound, read-out: Percentage inhibition of ligand binding, Adrenergic α2B
[16] = 0.1 μM compound, read-out: Percentage inhibition of ligand binding, Adrenergic α2A
[17] = 0.1 μM compound, read-out: Percentage inhibition of ligand binding, Adrenergic α1B

SMILES: CN1CCc2c(c3cccc(Cl)c3n2CC(O)c2ccncc2)C1 (single isomer, unassigned) [45b]
Percentage inhibition of ligand binding, Adrenergic α2B [1, 10]: 96% | Percentage inhibition of ligand binding, Adrenergic α2A [2, 11]: 16% | Percentage inhibition of ligand binding, Adrenergic α1B ([3]; compound at 0.1 μM, [3H]Prazosin, repeat assays, each datapoint shown): 24%

SMILES: Cc1ccc2c(c1)c1c(n2CC(C)(O)c2cccnc2)CCN(C)C1 (single isomer, unassigned) [5a, 1-(1,2,3,4-tetrahydro-2,8-dimethylpyrido[4,3-b]indol-5-yl)-2-(pyridin-3-yl)propan-2-ol]
Percentage inhibition of ligand binding, Adrenergic α2B [1, 10]: 29% and 38% | Percentage inhibition of ligand binding, Adrenergic α2B ([1]; compound at 0.1 μM, [3H]Rauwolscine, repeat assays, each datapoint shown, 0.1 µM): 57% | Ki [1]: 35 nM | Percentage inhibition of ligand binding, Adrenergic α2A [2, 11]: 0% | inhibition at 0.1 µM [3, 12]: 18%

SMILES: Cc1ccc2c(c1)c1c(n2CC(OC(=O)c2ccncc2)c2ccncc2)CCN(C)C1 (single isomer, unassigned) [147b, isonicotinic acid 2-(2,8-dimethyl-1,2,3,4-tetrahydro-pyrido[4,3-b]indol-5-yl)-1-pyridin-4-yl-ethylester]
Percentage inhibition of ligand binding, Adrenergic α2B (0.03 μM) [1, 4]: 93% | Percentage inhibition of ligand binding, Adrenergic α2A (0.1 μM) [2, 6]: 36% | Percentage inhibition of ligand binding, Adrenergic α1B (0.1 μM) [3, 8]: 82%

SMILES: Cc1cccc2c3c(n(CC(O)c4ccncc4)c12)CCN(C)C3 (centres unmarked) [compound 82, 2-(2,6-dimethyl-1,2,3,4-tetrahydro-pyrido[4,3-b]indol-5-yl)-1-pyridin-4-yl-ethanol]
inhibition at 0.03 µM [1, 13]: 79% | inhibition at 0.1 µM [2, 14]: 5% | inhibition at 0.1 µM [3, 12]: 16%

SMILES: OC(Cn1c2c(c3cc(Cl)cnc31)CN1CCCC1C2)c1ccncc1 (centres unmarked) [II-86]
inhibition at 0.03 µM [1, 15]: 35% | inhibition at 0.1 µM [2, 16]: 27% | inhibition at 0.1 µM [3, 17]: 44%

SMILES: Cc1ccc2c(c1)c1c(n2CC(C)(OC(=O)C(C)(C)C)c2cccnc2)CCN(C)C1 (single isomer, unassigned) [II-16b, 2,2-dimethyl-propionic acid 2-(2,8-dimethyl-1,2,3,4-tetrahydro-pyrido[4,3-b]indol-5-yl)-1-methyl-1-pyridin-3-yl-ethyl ester]
Percentage inhibition of ligand binding, Adrenergic α2B ([1]; 0.03 μM compound, 0.03 µM): 73% | inhibition at 0.03 µM [1, 15]: 65% | inhibition at 0.1 µM ([1]; 0.1 μM compound, read-out: Percentage inhibition of ligand binding, Adrenergic α2B): 88% | Ki [1]: 5.58 nM | inhibition at 0.1 µM [2, 16]: 32% | inhibition at 0.03 µM ([3]; 0.03 μM compound, read-out: Percentage inhibition of ligand binding, Adrenergic α1B): 16% | Percentage inhibition of ligand binding, Adrenergic α1B ([3]; 0.1 μM compound): 46% | inhibition at 0.1 µM [3, 17]: 32%

Next, values leading:

Percentage inhibition of ligand binding, Adrenergic α2B (0.03 μM) [1, 4]: 106% | Ki [1]: 0.16 nM | inhibition at 0.03 µM [1, 5]: 103% | Ki [2]: 1.21 nM | Percentage inhibition of ligand binding, Adrenergic α2A (0.1 μM) [2, 6]: 98% | inhibition at 0.03 µM ([2]; read-out: Percentage inhibition of ligand binding, Adrenergic α2A (0.03 μM), compound at 0.03 μM, [3H]MK-912, repeat datapoints each shown): 89% | inhibition at 0.1 µM [2, 7]: 97% | Percentage inhibition of ligand binding, Adrenergic α1B (0.1 μM) [3, 8]: 102% | inhibition at 0.03 µM ([3]; read-out: Percentage inhibition of ligand binding, Adrenergic α1B (0.03 μM), compound at 0.03 μM, [3H]Prazosin, repeat datapoints each shown): 89% | inhibition at 0.1 µM [3, 9]: 97%
SMILES: Cc1cc(C)c2c(c1)c1c(n2CC(O)c2ccncc2)CCN2CCCC12 (single isomer, unassigned) [II-125b, 2-(8,10-dimethyl-2,3,5,6-tetrahydro-1H-indolizino[7,8-b]indol-7(11cH)-yl)-1-(pyridin-4-yl)ethanol]

inhibition at 0.03 µM [1, 5]: 35% | inhibition at 0.1 µM [2, 7]: 3% | inhibition at 0.1 µM [3, 9]: 42%
SMILES: Cc1cnc2c(c1)c1c(n2CC(O)c2ccc(C(N)=O)nc2)CCN(C)C1 (centres unmarked) [II-111, 5-[2-(3,6-dimethyl-5,6,7,8-tetrahydro-1,6,9-triaza-fluoren-9-yl)-1-hydroxy-ethyl]-pyridine-2-carboxylic acid amide]

inhibition at 0.03 µM [1, 13]: 12% | inhibition at 0.1 µM [2, 14]: -2% | inhibition at 0.1 µM [3, 12]: 6%
SMILES: CCOC(=O)N1CCc2c(c3cc(C)ccc3n2CC(O)c2ccncc2)C1 (centres unmarked) [compound 72, ethyl 3,4-dihydro-5-(2-hydroxy-2-(pyridin-4-yl)ethyl)-8-methyl-1H-pyrido[4,3-b]indole-2(5H)-carboxylate]

Percentage inhibition of ligand binding, Adrenergic α2B (0.03 μM) [1, 4]: 44% | Percentage inhibition of ligand binding, Adrenergic α2A (0.1 μM) [2, 6]: −1% | Percentage inhibition of ligand binding, Adrenergic α1B (0.1 μM) [3, 8]: 65%
SMILES: Cc1cnc2c(c1)c1c(n2CCc2cnc(C)nc2)CCN2CCCC12 (single isomer, unassigned) [IV-93b]
